Measured values published in article PMC3616060, “Full Inhibition of Spinal FAAH Leads to TRPV1-Mediated Analgesic Effects in Neuropathic Rats and Possible Lipoxygenase-Mediated Remodeling of Anandamide Metabolism” (PLoS ONE, 2013).

Experiments:
[1] = biological target: T1, transient receptor potential vanilloid-1 (TRPV1) (Rattus norvegicus, UniProt O35433); experiment: intracellular Ca2+ (Fluo-4) assay in HEK-293 cells expressing rat TRPV1; type: cell-based
T1 construct: rat recombinant TRPV1 stably expressed in HEK-293 cells
T1 sequence (O35433 whole entry): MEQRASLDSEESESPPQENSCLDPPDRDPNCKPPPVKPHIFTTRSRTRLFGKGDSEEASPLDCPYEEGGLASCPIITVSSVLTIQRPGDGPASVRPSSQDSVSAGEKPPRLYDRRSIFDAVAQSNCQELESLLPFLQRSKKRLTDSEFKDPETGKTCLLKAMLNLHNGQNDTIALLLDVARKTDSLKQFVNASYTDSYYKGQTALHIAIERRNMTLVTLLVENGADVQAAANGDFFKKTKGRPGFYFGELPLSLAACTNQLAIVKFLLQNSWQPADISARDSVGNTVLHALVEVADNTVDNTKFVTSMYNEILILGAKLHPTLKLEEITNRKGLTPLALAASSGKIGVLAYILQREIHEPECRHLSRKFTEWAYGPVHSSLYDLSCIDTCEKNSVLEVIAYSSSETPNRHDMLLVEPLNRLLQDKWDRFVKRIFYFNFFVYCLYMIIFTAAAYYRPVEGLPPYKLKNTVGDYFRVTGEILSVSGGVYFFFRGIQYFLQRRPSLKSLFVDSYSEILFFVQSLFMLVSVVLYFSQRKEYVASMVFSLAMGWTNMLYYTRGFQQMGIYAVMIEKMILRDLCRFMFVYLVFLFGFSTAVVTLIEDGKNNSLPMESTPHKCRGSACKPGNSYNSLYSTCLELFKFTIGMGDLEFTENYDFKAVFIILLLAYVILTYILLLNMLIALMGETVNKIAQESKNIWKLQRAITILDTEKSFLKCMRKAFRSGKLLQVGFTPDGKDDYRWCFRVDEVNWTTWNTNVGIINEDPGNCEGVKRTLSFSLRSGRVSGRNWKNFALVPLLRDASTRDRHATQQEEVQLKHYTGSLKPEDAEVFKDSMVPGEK

[2] = biological target: T1, transient receptor potential vanilloid-1 (TRPV1); experiment: intracellular Ca2+ (Fluo-4) assay in HEK-293 cells expressing rat TRPV1; much lower effect, if any, in wild-type cells or after I-RTX; type: cell-based

Compound	EC50 [1]	EC50 [2]
CCCCC/C=C\C/C=C\C/C=C\C/C=C\CCCC(=O)NCCO [AEA, anandamide]	0.24 ± 0.03 µM	
CCCCC[C@H](O)/C=C/C=C\C/C=C\C/C=C\CCCC(=O)NCCO [15S-HAEA, 15(S)-hydroxy-AEA]		11.3 ± 0.9 µM
